Assay type in all cases: cell-based
The target of series [1] is T1, hERG potassium channel (human Ether-à-go-go Related Gene) (Homo sapiens, UniProt Q12809, S624A).
T1 construct: gene KCNH2; S624A hERG transiently expressed in HEK 293 cells
In words: whole-cell patch-clamp, single concentration […]. The following applies: read-out: % of control tail current at 300 nM.

The target of series [2] is T2, hERG potassium channel (human Ether-à-go-go Related Gene) (Homo sapiens, UniProt Q12809).
T2 construct: gene KCNH2; wild-type hERG stably expressed in HEK 293 cells
In words: whole-cell patch-clamp, hERG tail current, […] °C.

Series [3] deals with T3, hERG potassium channel (human Ether-à-go-go Related Gene) (Homo sapiens, UniProt Q12809, N588K).
T3 construct: gene KCNH2; N588K hERG transiently expressed in HEK 293 cells
Nature of the series: whole-cell patch-clamp, single concentration […]. The following applies: read-out: % of control tail current at 300 nM.

The target in series [4] is T4, hERG potassium channel (human Ether-à-go-go Related Gene) (Homo sapiens, UniProt Q12809, T623A).
T4 construct: gene KCNH2; T623A hERG transiently expressed in HEK 293 cells
In words: whole-cell patch-clamp, inward tail current in […] K+, […]. To be noted: read-out: % of control tail current at 300 nM.

Series [5] has as its target T5, hERG potassium channel (human Ether-à-go-go Related Gene) (Homo sapiens, UniProt Q12809, F557L).
T5 construct: gene KCNH2; F557L hERG transiently expressed in HEK 293 cells
Nature of the series: whole-cell patch-clamp, single concentration […]. To be noted: read-out: % of control tail current at 300 nM.

For the molecule `Cc1ccc(C(=O)C2CCN(CCc3ccccc3)CC2)cc1` [E-4031-17], the activity at 0.3 µM turned out to be 57.2% in series [1], 43.2% in series [3], 69.7% in series [4] and 57.9% in series [5]. For the same molecule, the IC50 in series [2] was determined as 0.0403 µM.

Source of the values: article PMC10536391, “Inhibition of the hERG Potassium Channel by a Methanesulphonate-Free E-4031 Analogue” (Pharmaceuticals, 2023).
